{
  "source": "patent US20240158472A1",
  "about": "“FERRITIN VARIANTS WITH INCREASED STABILITY AND COMPLEXATION ABILITY” (Cellis AG, priority 2021, published 2024)",
  "tested_on": "siRNA",
  "test": "Association of ferritin with siRNA, gel",
  "type": "binding",
  "description": "1 ml reaction containing 2 mg Ft and 4 ug siRNA in DPBS, pH lowered to values as indicated (2.5, 3.2, 4.4, 5.6 and 6.8, respectively). Samples were incubated 15 min in RT, then NaOH was added to adjust pH to neutral (pH 7). Non-associated free siRNA was removed by 4 centrifugation steps on Amicons with 100 kDa cut-off.",
  "data": [
    {"substance": "Q11E mutant: Examples 3-8 ferritin variant based on Q11E with added K54E, K72E, K87Q, K144E, C91S, C103S and C131S", "values": [
      {"measurement": "association with siRNA", "setting": "incubated in pH 2.4 and 3.2", "result": "not"},
      {"measurement": "association with siRNA", "setting": "incubated in pH range 4.4 to 6.8, 2 mg Ft and 4 ug siRNA", "result": "associated with siRNA"}
    ]}
  ]
}
